Test results published in patent US20250136584A1, “Benzimidazole Or Azabenzimidazole Compound, Preparation Method Therefor And Use Thereof” (Chengdu Di'Ao Jiuhong Pharmaceutical Factory, priority 2022, published 2025).

Tests used:
GLP1R = GLP1R (Homo sapiens, UniProt P43220); experiment: Agonist activity on GLP1R/CRE-LUC HEK293 cells (luciferase reporter, ONE-Glo); type: cell-based; conditions: for EC50: GLP1R/CRE-LUC HEK293 cells, 6 hours incubation, chemiluminescence signal; for activity compared with comparative example compounds PF-06882961, DB02, DB03 and DB06: from Table 1, also much higher than DB04 and DB05
Procedure: Logarithmically growing GLP1R/CRE-LUC HEK293 cells (purchased from Nanjing Cobioer) were digested, the digested cells were re-suspended in a DMEM+10% FBS culture medium, and a cell density was adjusted to be 3.5*10^5/mL. The cell solution was added into a 96-well cell culture plate by 100 µL/well, and the plate was cultured overnight in an incubator (37° C., 5% CO2).
A compound was dissolved with DMSO to prepare a storage solution at an initial concentration of 10 mM, an initial concentration of the small molecular compound was 0.2 mM, and the compound was diluted by 3 times and 10 points were diluted, while the 11th point was DMSO. Another 96-well plate was taken, added with 95 μL of cell culture solution (DMEM+10% FBS) in each well, then added with 5 μL of to-be-tested samples at different concentrations in each well, mixed evenly, and then added with 11 μL of to-be-tested samples at different concentrations in each well of the cell culture plate, and each sample had two wells. The culture plate was incubated in an incubator for 6 hours (37° C., […]). The 96-well cell culture plate was taken out, added with 100 μL of ONE-Glo™ reagent in each well, and incubated at room temperature for 10 minutes, and a chemiluminescence signal value was measured with an enzyme-labeled instrument. Data were processed and analyzed by Microsoft Excel and Graphpad Prism6 to obtain an EC50 value of the compound.

hGLP1R mice = experiment: Glucose tolerance test in hGLP1R mice after single oral administration; type: in vivo; conditions: 1 mg/kg oral once; for blood glucose reduction effect compared with PF-06882961: glucose 2 g/kg i.p. 60 minutes later; for onset of blood glucose reduction compared with comparative example compound DB03 / blood glucose reduction effect compared with comparative example compound DB03: FIG. 3 and FIG. 4
Procedure: Genetically engineered hGLP1R mice, male, purchased from Biocytogen Jiangsu Gene Biotechnology Co., Ltd., were fasted overnight before the glucose tolerance test (IPTGG), without water deprivation. A solvent or corresponding compound was orally administered once, a glucose solution (2 g/kg) was intraperitoneally injected 60 minutes after administration, and a blood glucose value before administration of glucose (equivalent to a blood glucose value of 0 minute) and blood glucose values 15 minutes, 30 minutes, 60 minutes and 120 minutes after administration of glucose were measured. The solvent was 5% DMSO+40% PEG400+55% physiological saline, and a dosage of the compound was 1 mg/kg (n=3).

hERG potassium channel = target: T1, hERG potassium channel (Homo sapiens, UniProt Q12809); experiment: hERG test, patch clamp on HEK-293 cells stably expressing hERG potassium channel; type: cell-based; conditions: HEK-293 cell line stably expressing hERG, read-out: IC50 (μM) of inhibitory effect on hERG potassium channel current
T1 construct: host or cells: HEK-293 stably expressing hERG
Procedure: Test object: influences of compounds on an hERG potassium channel current were tested by a full-automatic patch clamp method.
• (1) An HEK-293 cell line stably expressing an hERG potassium channel was adopted, and hERG potassium channel cells were purchased from Creacell Company. • (2) The HEK-293 cell line stably expressing the hERG potassium channel was cultured in a DMEM culture medium containing 10% fetal bovine serum and 0.8 mg/mL G418 at 37° C. under a carbon dioxide concentration of 5%. • (3) Cell passage: the old culture medium was removed, and the cells were washed once with PBS, then added with 1 mL of TrypLE™ Express solution, and incubated at 37° C. for about 0.5 minutes. When the cells were separated from a dish bottom, about 5 mL of complete culture medium preheated at 37° C. was added. A cell suspension was gently blown with a straw to separate the aggregated cells. The cell suspension was transferred to a sterile centrifuge tube and centrifuged at 1000 rpm for 5 minutes to collect the cells. In amplification or maintenance of culture, the cells were inoculated into a 6 cm cell culture dish, and the number of cells inoculated into each cell culture dish was 2.5×10^5 cells (final volume: 5 mL). In order to maintain an electrophysiological activity of cells, a cell density should not exceed 80%. • (4) In patch clamp detection, before the test, the cells were separated by TrypLE™ Express, and 4×10^3 cells were spread on a cover slip and cultured in a 24-well plate (final volume: 500 μL). After 18 hours, the test was carried out for detection. Data analysis:
A current after an effect of each drug concentration and a blank control current
were standardized first, and then an inhibition rate
corresponding to each drug concentration was calculated. A mean number and a standard error were calculated for each concentration, and a semi-inhibitory concentration of each compound was calculated by the following equation: […]
A dosage-dependent effect was nonlinearly fitted by the above equation, wherein C represented a concentration of a test sample, IC50 represented a semi-inhibitory concentration, and h represented a Hill coefficient. Curve fitting and IC50 calculation were completed by IGOR software.

[1] = Pharmacokinetic studies in SD rats; type: in vivo; conditions: Sprague-Dawley (SD), rat, plasma
[2] = blood glucose curves and AUC (0 to 120 minutes)

T1 sequence (Q12809 whole entry): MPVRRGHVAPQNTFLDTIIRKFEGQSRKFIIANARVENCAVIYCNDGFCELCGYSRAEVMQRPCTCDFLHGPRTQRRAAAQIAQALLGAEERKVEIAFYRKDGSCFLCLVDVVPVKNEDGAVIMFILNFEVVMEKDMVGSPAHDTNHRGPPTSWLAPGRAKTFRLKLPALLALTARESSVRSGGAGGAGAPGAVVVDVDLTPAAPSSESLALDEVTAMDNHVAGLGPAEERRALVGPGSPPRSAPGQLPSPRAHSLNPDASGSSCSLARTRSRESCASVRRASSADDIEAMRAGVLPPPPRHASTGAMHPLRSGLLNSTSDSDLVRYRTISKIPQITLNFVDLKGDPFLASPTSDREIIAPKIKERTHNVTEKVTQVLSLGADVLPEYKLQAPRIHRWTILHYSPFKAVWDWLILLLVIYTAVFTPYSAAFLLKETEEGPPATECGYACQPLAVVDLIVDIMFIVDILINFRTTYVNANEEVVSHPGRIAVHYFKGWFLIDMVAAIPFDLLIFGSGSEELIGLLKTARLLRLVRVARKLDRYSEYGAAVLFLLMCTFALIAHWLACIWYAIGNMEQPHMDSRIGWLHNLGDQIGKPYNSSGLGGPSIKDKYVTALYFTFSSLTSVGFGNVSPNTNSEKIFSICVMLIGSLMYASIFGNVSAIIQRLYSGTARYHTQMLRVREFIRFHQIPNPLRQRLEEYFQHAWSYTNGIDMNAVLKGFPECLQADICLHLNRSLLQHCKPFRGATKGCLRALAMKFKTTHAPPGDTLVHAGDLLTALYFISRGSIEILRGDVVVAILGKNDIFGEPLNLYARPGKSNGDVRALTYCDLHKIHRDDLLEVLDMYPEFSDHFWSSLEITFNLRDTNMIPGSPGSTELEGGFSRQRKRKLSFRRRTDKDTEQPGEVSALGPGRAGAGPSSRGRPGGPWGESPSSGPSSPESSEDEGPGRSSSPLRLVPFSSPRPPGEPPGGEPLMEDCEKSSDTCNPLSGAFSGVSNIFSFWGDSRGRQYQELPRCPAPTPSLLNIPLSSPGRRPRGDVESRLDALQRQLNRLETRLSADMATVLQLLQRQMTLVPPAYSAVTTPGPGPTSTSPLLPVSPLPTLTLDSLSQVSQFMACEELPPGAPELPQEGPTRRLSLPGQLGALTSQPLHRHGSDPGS
Sequence of GLP1R (P43220 24-463): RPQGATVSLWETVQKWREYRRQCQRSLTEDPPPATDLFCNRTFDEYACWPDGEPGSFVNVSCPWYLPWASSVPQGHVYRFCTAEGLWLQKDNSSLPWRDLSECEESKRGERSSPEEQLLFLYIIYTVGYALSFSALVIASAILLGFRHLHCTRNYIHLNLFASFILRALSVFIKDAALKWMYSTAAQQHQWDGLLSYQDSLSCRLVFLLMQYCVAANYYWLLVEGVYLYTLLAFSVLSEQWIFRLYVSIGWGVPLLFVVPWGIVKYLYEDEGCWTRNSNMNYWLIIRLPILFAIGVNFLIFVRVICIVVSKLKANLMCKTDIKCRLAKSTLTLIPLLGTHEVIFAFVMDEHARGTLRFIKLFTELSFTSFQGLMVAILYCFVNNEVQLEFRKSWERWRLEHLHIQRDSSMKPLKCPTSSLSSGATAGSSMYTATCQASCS

| Compound | EC50 (GLP1R) [µM] | activity compared with comparative example compounds PF-06882961, DB02, DB03 and DB06 (GLP1R) | blood glucose reduction effect compared with PF-06882961 (hGLP1R mice; [2]) | IC50 (hERG potassium channel) [µM] | half-life [1] [h] | onset of blood glucose reduction compared with comparative example compound DB03 (hGLP1R mice) | blood glucose reduction effect compared with comparative example compound DB03 (hGLP1R mice; [2]) | onset of blood glucose reduction compared with comparative example compound DB05 (hGLP1R mice; FIG. 1 and FIG. 2) | blood glucose reduction effect compared with comparative example compound DB05 (hGLP1R mice; blood glucose curves and AUC (0 to 120 minutes), FIG. 1 and FIG. 2) |
| --- | --- | --- | --- | --- | --- | --- | --- | --- | --- |
| O=C(O)c1ccc2nc(Cc3ccc(-c4cccc(OCc5ccc(Cl)c6cc(F)oc56)n4)cc3F)n(C[C@@H]3CCO3)c2c1 [Compound 21] | 0.00096 | higher | significantly better | > 30 | 6 to 10 | – | – | – | – |
| N#Cc1ccc(COc2cccc(C3CCN(Cc4nc5ccc(C(=O)O)cc5n4C[C@@H]4CCO4)CC3)n2)c(F)c1 [PF-06882961, reference compound] | – | – | – | 9.35 | 3.13 | – | – | – | – |
| O=C(O)c1ccc2nc(Cc3ccc(-c4cccc(OCc5ccc(Cl)cc5F)n4)cc3F)n(C[C@@H]3CCO3)c2c1 [DB03, reference compound] | – | – | – | > 10 | 2.94 | – | – | – | – |
| O=C(O)c1ccc2nc(Cc3ccc(-c4ccc(F)c(OCc5ccc(Cl)c6ccoc56)n4)cc3F)n(C[C@@H]3CCO3)c2c1 [Compound 93] | 0.00289 | higher | significantly better | > 30 | 6 to 10 | took effect more quickly | absolutely better | – | – |
| O=C(O)c1ccc2nc(Cc3ccc(-c4cccc(OCc5ccc(Cl)c6ccoc56)n4)cc3F)n(C[C@@H]3CCO3)c2c1 [Compound 17] | – | – | significantly better | > 30 | – | took effect more quickly | absolutely better | took effect more quickly | significantly better |
| O=C(O)c1ccc2nc(Cc3ccc(-c4cccc(OCc5ccc(Cl)c6cc(Cl)oc56)n4)cc3F)n(C[C@@H]3CCO3)c2c1 [Compound 99] | – | – | significantly better | > 30 | 6 to 10 | – | – | – | – |
| O=C(O)c1ccc2nc(Cc3ccc(-c4ccc(F)c(OCc5ccc(Cl)c6cc(Cl)oc56)n4)cc3F)n(C[C@@H]3CCO3)c2c1 [Compound 100] | 0.00202 | higher | significantly better | > 30 | 6 to 10 | took effect more quickly | absolutely better | – | – |
| O=C(O)c1ccc2nc(Cc3ccc(-c4ccc(F)c(OCc5ccc(Cl)c6cc(F)oc56)n4)cc3F)n(C[C@@H]3CCO3)c2c1 [Compound 94] | 0.00089 | higher | significantly better | > 30 | 6 to 10 | – | – | – | – |
